Experimental data as given in ChEMBL document CHEMBL3045957, “Synthesis and antimicrobial activity of some new 3[5-(4-substituted) phenyl-1,3,4-oxadiazole-2yl]-2- styrylquinazoline-4(3H)-ones” (2008).
Values after ≈ are worked out from the molar mass of the structure shown. Active and inactive are the calls of the source. The rule behind the calls is not given here.

Experiments:
Assay type in all cases: functional
[1] = tested on: Staphylococcus aureus; assay: Antibacterial activity against Staphylococcus aureus MTCC 96 by liquid dilution technique
[2] = tested on: Escherichia coli; assay: Antibacterial activity against Escherichia coli MTCC 40 by liquid dilution technique
[3] = tested on: Fusarium oxysporum; assay: Antifungal activity against Fusarium oxysporum by liquid dilution technique
[4] = tested on: Aspergillus niger; assay: Antifungal activity against Aspergillus niger MTCC 1344 by liquid dilution technique
[5] = tested on: Pseudomonas aeruginosa; assay: Antibacterial activity against Pseudomonas aeruginosa MTCC 424 by liquid dilution technique
[6] = tested on: Bacillus subtilis; assay: Antibacterial activity against Bacillus subtilis MTCC 619 by liquid dilution technique

SMILES | MIC [1] | MIC [2] | MIC [3] | MIC [4] | MIC [5] | MIC [6]
Cc1nc2ccccc2c(=O)n1-c1nnc(-c2ccc(N(C)C)cc2)o1 | 88 µg/mL (≈ 253 µM) | 84 µg/mL (≈ 242 µM) | 179 µg/mL (≈ 515 µM) | 170 µg/mL (≈ 489 µM) | 95 µg/mL (≈ 273 µM) | 88 µg/mL (≈ 253 µM)
COc1ccc(-c2nnc(-n3c(C)nc4ccccc4c3=O)o2)cc1 | 90 µg/mL (≈ 269 µM) | 80 µg/mL (≈ 239 µM) | 175 µg/mL (≈ 523 µM) | 165 µg/mL (≈ 494 µM) | 100 µg/mL (≈ 299 µM) | 85 µg/mL (≈ 254 µM)
Cc1ccc(-c2nnc(-n3c(/C=C/c4ccccc4)nc4ccccc4c3=O)o2)cc1 | 85 µg/mL (≈ 209 µM) | 81 µg/mL (≈ 199 µM) | 156 µg/mL (≈ 384 µM) | 145 µg/mL (≈ 357 µM) | 92 µg/mL (≈ 226 µM) | 83 µg/mL (≈ 204 µM)
CCn1cc(C(=O)O)c(=O)c2cc(F)c(N3CCNCC3)cc21 [NORFLOXACIN] | 6 µg/mL (≈ 18.8 µM) | 4 µg/mL (≈ 12.5 µM) | – | – | 8 µg/mL (≈ 25.1 µM) | 5 µg/mL (≈ 15.7 µM)
Cc1nc2ccccc2c(=O)n1-c1nnc(-c2ccccc2)o1 | 130 µg/mL (≈ 427 µM) | 120 µg/mL (≈ 394 µM) | 192 µg/mL (≈ 631 µM) | 185 µg/mL (≈ 608 µM) | 135 µg/mL (≈ 444 µM) | 127 µg/mL (≈ 417 µM)
O=c1c2ccccc2nc(/C=C/c2ccccc2)n1-c1nnc(-c2ccccc2)o1 | 82 µg/mL (≈ 209 µM) | 76 µg/mL (≈ 194 µM) | 152 µg/mL (≈ 387 µM) | 143 µg/mL (≈ 364 µM) | 90 µg/mL (≈ 229 µM) | 80 µg/mL (≈ 204 µM)
Cc1nc2ccccc2c(=O)n1-c1nnc(-c2ccc(Cl)cc2)o1 | 89 µg/mL (≈ 263 µM) | 82 µg/mL (≈ 242 µM) | 184 µg/mL (≈ 543 µM) | 172 µg/mL (≈ 508 µM) | 98 µg/mL (≈ 289 µM) | 84 µg/mL (≈ 248 µM)
Clc1ccccc1C(c1ccccc1)(c1ccccc1)n1ccnc1 [CLOTRIMAZOLE] | – | – | 8 µg/mL (≈ 23.2 µM) | 6 µg/mL (≈ 17.4 µM) | – | –
Cc1ccc(/C=C/c2nc3ccccc3c(=O)n2-c2nnc(-c3ccccc3)o2)cc1 | inactive | inactive | inactive | inactive | inactive | inactive
COc1ccc(-c2nnc(-n3c(/C=C/c4ccc(C)cc4)nc4ccccc4c3=O)o2)cc1 | inactive | inactive | inactive | inactive | inactive | inactive
Cc1ccc(-c2nnc(-n3c(C)nc4ccccc4c3=O)o2)cc1 | 127 µg/mL (≈ 399 µM) | 115 µg/mL (≈ 361 µM) | 180 µg/mL (≈ 565 µM) | 165 µg/mL (≈ 518 µM) | 138 µg/mL (≈ 434 µM) | 122 µg/mL (≈ 383 µM)
COc1ccc(-c2nnc(-n3c(/C=C/c4ccccc4)nc4ccccc4c3=O)o2)cc1 | inactive | inactive | inactive | inactive | inactive | inactive

Results, then the compound that gave them:

MIC [1] | MIC [2] | MIC [3] | MIC [4] | MIC [5] | MIC [6] | SMILES
inactive | inactive | inactive | inactive | inactive | inactive | COc1ccc(-c2nnc(-n3c(/C=C/c4ccc(Cl)cc4)nc4ccccc4c3=O)o2)cc1
inactive | inactive | inactive | inactive | inactive | inactive | Cc1ccc(-c2nnc(-n3c(/C=C/c4ccc(Cl)cc4)nc4ccccc4c3=O)o2)cc1
inactive | inactive | inactive | inactive | inactive | inactive | O=c1c2ccccc2nc(/C=C/c2ccc(Cl)cc2)n1-c1nnc(-c2ccccc2)o1
79 µg/mL (≈ 185 µM) | 70 µg/mL (≈ 164 µM) | 141 µg/mL (≈ 330 µM) | 130 µg/mL (≈ 305 µM) | 86 µg/mL (≈ 201 µM) | 75 µg/mL (≈ 176 µM) | O=c1c2ccccc2nc(/C=C/c2ccccc2)n1-c1nnc(-c2ccc(Cl)cc2)o1
inactive | inactive | inactive | inactive | inactive | inactive | O=c1c2ccccc2nc(/C=C/c2ccc(Cl)cc2)n1-c1nnc(-c2ccc(Cl)cc2)o1
inactive | inactive | inactive | inactive | inactive | inactive | CN(C)c1ccc(-c2nnc(-n3c(/C=C/c4ccc(Cl)cc4)nc4ccccc4c3=O)o2)cc1
88 µg/mL (≈ 202 µM) | 79 µg/mL (≈ 181 µM) | 166 µg/mL (≈ 381 µM) | 155 µg/mL (≈ 356 µM) | 94 µg/mL (≈ 216 µM) | 83 µg/mL (≈ 191 µM) | CN(C)c1ccc(-c2nnc(-n3c(/C=C/c4ccccc4)nc4ccccc4c3=O)o2)cc1
inactive | inactive | inactive | inactive | inactive | inactive | Cc1ccc(/C=C/c2nc3ccccc3c(=O)n2-c2nnc(-c3ccc(C)cc3)o2)cc1
inactive | inactive | inactive | inactive | inactive | inactive | Cc1ccc(/C=C/c2nc3ccccc3c(=O)n2-c2nnc(-c3ccc(Cl)cc3)o2)cc1
inactive | inactive | inactive | inactive | inactive | inactive | Cc1ccc(/C=C/c2nc3ccccc3c(=O)n2-c2nnc(-c3ccc(N(C)C)cc3)o2)cc1
